US10385103B2, “Cell-permeable (ICP)-SOCS3 recombinant protein and uses thereof” (CELLIVERY THERAPEUTICS, INC., priority 2014, dated 2019)

Tested on: RAW 264.7 cells
Experiment: Quantitative cell-permeability of FITC-labeled aMTD- or rPeptide-fused CRA recombinant proteins (flow cytometry)
Type: cell-based
Conditions: for Relative Ratio to aMTD AVE: cell-permeability of rPeptide-fused CRA recombinant protein relative to average of 240 aMTDs
Procedure, shortened: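 Uptake of fluorescently labeled, peptide-fused cargo proteins was quantified by flow cytometry (Guava, Millipore) and analyzed in FlowJo software. RAW 264.7 cells received 10 μM FITC-labeled protein for 1 hour at 37° C., were rinsed three times with cold PBS, and were trypsinized with 0.25% tripsin/EDTA for 20 minutes at 37° C. to remove bound protein before measurement. Permeability was expressed relative to reference proteins.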

[1] = cell-permeability of aMTD-fused CRA recombinant protein relative to negative control (A: rP38)
[2] = cell-permeability of aMTD-fused CRA recombinant protein relative to reference CPP (B: MTM12)
[3] = cell-permeability of aMTD-fused CRA recombinant protein relative to reference CPP (C: MTD85)
[4] = cell-permeability relative to negative control rP38 (A type), aMTD-fused CRA recombinant protein, 10 μM FITC-labeled, 1 hour, 37° C., RAW 264.7 cells
[5] = cell-permeability relative to reference CPP MTD85 (C type), aMTD-fused CRA recombinant protein, 10 μM FITC-labeled, 1 hour, 37° C., RAW 264.7 cells
[6] = cell-permeability relative to reference CPP MTM12 (B type), aMTD-fused CRA recombinant protein, 10 μM FITC-labeled, 1 hour, 37° C., RAW 264.7 cells
[7] = 10 μM FITC-labeled, 1 hour, 37° C., RAW 264.7 cells

Substance | Relative Ratio (Fold) A [1] | Relative Ratio (Fold) B [2] | Relative Ratio (Fold) C [3] | Relative Ratio (Fold) A [4] | Relative Ratio (Fold) C [5] | Relative Ratio (Fold) B [6] | further results
846 (IAVAVAAPLLVP; Amino acid Sequence of aMTD846) [compound 846] | 11.7 Fold | 6.8 Fold | 4.0 Fold | – | – | – | –
830 (IALVAAPVALVP; Amino acid Sequence of aMTD830) [compound 830] | – | – | – | 5.3 Fold | 1.8 Fold | 3.5 Fold | –
897 (AVIVPVAIIAAP; Amino acid Sequence of aMTD897) [compound 897] | 11.2 Fold | 7.5 Fold | 3.8 Fold | 11.2 Fold | 3.8 Fold | 7.5 Fold | –
185 (AALVLPLIIAAP; Amino acid Sequence of aMTD185) [compound 185] | 8.5 Fold | 5.7 Fold | 2.9 Fold | – | – | – | –
225 (VAALLPAAAVLP; Amino acid Sequence of aMTD225) [compound 225] | 18.3 Fold | 12.2 Fold | 6.2 Fold | – | – | – | –
265 (VLAIAPLLAAVP; Amino acid Sequence of aMTD265) [compound 265] | – | – | – | 6.0 Fold | 2.0 Fold | 4.0 Fold | –
26 (AAIALAAPLAIV; Amino acid Sequence of rPeptide ID 26) [compound 26] | – | – | – | – | – | – | Relative Ratio to aMTD AVE [7]: 0.65
906 (AVIALAPVVVAP; Amino acid Sequence of aMTD906) [compound 906] | – | – | – | 6.8 Fold | 2.3 Fold | 4.6 Fold | –
38 (YYNQSTCGGQCY; Amino acid Sequence of rPeptide ID 38) [compound 38] | – | – | – | – | – | – | Relative Ratio to aMTD AVE [7]: 0.05
889 (ILVAAAPIAALP; Amino acid Sequence of aMTD889) [compound 889] | 30.3 Fold | 20.3 Fold | 10.3 Fold | – | – | – | –
221 (AAILAPIVALAP; Amino acid Sequence of aMTD221) [compound 221] | 10.9 Fold | 7.3 Fold | 3.7 Fold | – | – | – | –
405 (LAAAVIPVAILP; Amino acid Sequence of aMTD405) [compound 405] | 22.2 Fold | 14.8 Fold | 7.5 Fold | – | – | – | –
899 (AVVIALPAVVAP; Amino acid Sequence of aMTD899) [compound 899] | 164.2 Fold | 109.9 Fold | 55.5 Fold | – | – | – | Relative Ratio (Fold) A (relative cell-permeability of aMTD vs reference A (not defined)): 164.2 Fold; Relative Ratio (Fold) B (relative cell-permeability of aMTD vs reference CPP B: MTM12): 109.9 Fold; Relative Ratio (Fold) C (relative cell-permeability of aMTD vs reference CPP C: MTD85): 55.5 Fold
17 (GGCSAPQTTCSN; Amino acid Sequence of rPeptide ID 17) [compound 17] | – | – | – | – | – | – | Relative Ratio to aMTD AVE [7]: 0.08
124 (IAVALPALIAAP; Amino acid Sequence of aMTD124) [compound 124] | 43.6 Fold | 29.0 Fold | 14.7 Fold | – | – | – | –
325 (IVAVALPAVALP; Amino acid Sequence of aMTD325) [compound 325] | 11.7 Fold | 7.8 Fold | 4.0 Fold | – | – | – | –
684 (AAIVLALPAVLP; Amino acid Sequence of aMTD684) [compound 684] | – | – | – | 3.5 Fold | 1.2 Fold | 2.1 Fold | –
65 (IAIVAPVVALAP; Amino acid Sequence of aMTD65) [compound 65] | – | – | – | 3.0 Fold | 1.0 Fold | 2.0 Fold | –
807 (AVALAVPALVLP; Amino acid Sequence of aMTD807) [compound 807] | – | – | – | 5.0 Fold | 1.7 Fold | 3.3 Fold | –
464 (AVVILVPLAAAP; Amino acid Sequence of aMTD464) [compound 464] | 22.3 Fold | 14.9 Fold | 7.5 Fold | – | – | – | –
482 (ILAVAAIPVAVP; Amino acid Sequence of aMTD482) [compound 482] | 15.8 Fold | 10.6 Fold | 5.3 Fold | – | – | – | –
365 (AVIVVAPALLAP; Amino acid Sequence of aMTD365) [compound 365] | 9.3 Fold | 6.2 Fold | 3.1 Fold | 9.3 Fold | 3.1 Fold | 6.2 Fold | –

Substance | Relative Ratio (Fold) A [1] | Relative Ratio (Fold) B [2] | Relative Ratio (Fold) C [3] | Relative Ratio (Fold) A [4] | Relative Ratio (Fold) C [5] | Relative Ratio (Fold) B [6] | further results
61 (VAALPVLLAALP; Amino acid Sequence of aMTD61) [compound 61] | 31.2 Fold | 20.8 Fold | 10.5 Fold | – | – | – | –
262 (ALIAVPAIIVAP; Amino acid Sequence of aMTD262) [compound 262] | – | – | – | 5.5 Fold | 1.9 Fold | 3.7 Fold | –
345 (ALLIVAPVAVAP; Amino acid Sequence of aMTD345) [compound 345] | 8.9 Fold | 5.9 Fold | 3.0 Fold | – | – | – | –
902 (ALVAPLLAVAVP; Amino acid Sequence of aMTD902) [compound 902] | 7.6 Fold | 5.1 Fold | 2.6 Fold | – | – | – | –
285 (AIVLLPAAVVAP; Amino acid Sequence of aMTD285) [compound 285] | 13.3 Fold | 9.9 Fold | 4.5 Fold | – | – | – | –
402 (ALAAVIPAAILP; Amino acid Sequence of aMTD402) [compound 402] | – | – | – | 6.4 Fold | 2.2 Fold | 4.3 Fold | –
934 (LILAPAAVVAAA; Amino acid Sequence of rPeptide ID 934) [compound 934] | – | – | – | – | – | – | Relative Ratio to aMTD AVE [7]: 0.28
404 (LAAAVIPAAILP; Amino acid Sequence of aMTD404) [compound 404] | 18.9 Fold | 12.6 Fold | 6.4 Fold | – | – | – | –
865 (AVLVIAVPAIAP; Amino acid Sequence of aMTD865) [compound 865] | 11.3 Fold | 7.5 Fold | 3.8 Fold | – | – | – | –
895 (AIIIVVPAIAAP; Amino acid Sequence of aMTD895) [compound 895] | 60.8 Fold | 40.7 Fold | 20.6 Fold | – | – | – | –
829 (AALALVAPVIVP; Amino acid Sequence of aMTD829) [compound 829] | 44.8 Fold | 30.0 Fold | 15.2 Fold | – | – | – | –
693 (AAPVLPVAVPIV; Amino acid Sequence of rPeptide ID 693) [compound 693] | – | – | – | – | – | – | Relative Ratio to aMTD AVE [7]: 0.13
502 (AIVALAVPVLAP; Amino acid Sequence of aMTD502) [compound 502] | – | – | – | 5.6 Fold | 1.9 Fold | 3.7 Fold | –
66 (AGVLGGPIMGVP; Amino acid Sequence of rPeptide ID 66) [compound 66] | – | – | – | – | – | – | Relative Ratio to aMTD AVE [7]: 0.13
43 (LLAAPLVVAAVP; Amino acid Sequence of aMTD43) [compound 43] | – | – | – | 2.1 Fold | 0.7 Fold | 1.4 Fold | –
885 (LVAIAPAVAVLP; Amino acid Sequence of aMTD885) [compound 885] | 28.3 Fold | 19.0 Fold | 9.6 Fold | – | – | – | –
21 (AVALLPALLAVP; Amino acid Sequence of aMTD21) [compound 21] | 18.9 Fold | 12.6 Fold | 6.4 Fold | – | – | – | –
683 (LAIVLAAPAVLP; Amino acid Sequence of aMTD683) [compound 683] | – | – | – | 5.5 Fold | 1.9 Fold | 3.2 Fold | –
302 (LALAPALALLAP; Amino acid Sequence of aMTD302) [compound 302] | 10.2 Fold | 6.8 Fold | 3.4 Fold | – | – | – | –
443 (ALAALVPVALVP; Amino acid Sequence of aMTD443) [compound 443] | 8.0 Fold | 5.3 Fold | 2.7 Fold | – | – | – | –
725 (IAVLAVAPAVLP; Amino acid Sequence of aMTD725) [compound 725] | 11.2 Fold | 7.5 Fold | 3.8 Fold | – | – | – | –
